One test deals with NAMPT (Homo sapiens, UniProt P43490). Briefly: Time-Resolved Fluorescence Resonance Energy Transfer (TR-FRET) Binding Assay of NAMPT. The note with it: 6.8 nM NAMPT, 200 nM probe, equilibrated 3 hours, no substrates. The protocol:
Determination of the utility of compounds having Formula (I) as binders to and inhibitors of NAMPT was performed using Time-Resolved Fluorescence Resonance Energy Transfer (TR-FRET) binding assays.
Time-Resolved Fluorescence Resonance Energy Transfer (TR-FRET) Binding Assay of NAMPT
Six L were transferred to 384-well low-volume plates ([…] #3673). To this, 12 L of a 1.5× solution containing enzyme, probe and antibody were added. […] Reactions were equilibrated at room temperature for 3 hours prior to reading on an Envision multi-label plate reader (Perkin Elmer; Ex=337 nm, Em=520 and 495 nm). Time-resolved FRET ratios (Em520/Em495) were normalized to controls, plotted as a function of compound concentration and fit with the four-parameter logistic equation to determine IC50s.

The test system of a further test is PC3 cells. The experiment in a line: NAMPT Cell Proliferation Assay (Cell Titer Glo). It counts as cell-based. To be noted: Homo sapiens, PC-3, 120 h, incubated 5 days, cell viability. The method, then: NAMPT Cell Proliferation Assay
PC3 cells were seeded in 96-well black plates (Corning #3904) at 500 cells/well in 90 µl of RPMI media containing 10% heat-inactivated FBS and incubated overnight at 37° C. and 5% CO2 to allow cells to attach to wells. The following day, test compounds were serially diluted in neat DMSO to 1000× final concentrations prior to dilution with RPMI media to 10× and 1% DMSO. Ten L of the 10× compounds were then transferred to wells containing cells to produce a dose response of 10-fold dilutions from […]. Cells were incubated for 5 days at 37° C. and 5% CO2, then cell viability was measured using Cell Titer Glo reagent (Promega #G7571). Percent inhibition values were calculated and fitted to a sigmoidal dose response curves using Assay Explorer software to determine IC50s.
Background: Cellular ATP, detected with luciferase, serves as a proxy for viable cell number.

One may read the IC50 as the midpoint of a concentration-inhibition curve.

Chain of NAMPT (P43490 whole entry): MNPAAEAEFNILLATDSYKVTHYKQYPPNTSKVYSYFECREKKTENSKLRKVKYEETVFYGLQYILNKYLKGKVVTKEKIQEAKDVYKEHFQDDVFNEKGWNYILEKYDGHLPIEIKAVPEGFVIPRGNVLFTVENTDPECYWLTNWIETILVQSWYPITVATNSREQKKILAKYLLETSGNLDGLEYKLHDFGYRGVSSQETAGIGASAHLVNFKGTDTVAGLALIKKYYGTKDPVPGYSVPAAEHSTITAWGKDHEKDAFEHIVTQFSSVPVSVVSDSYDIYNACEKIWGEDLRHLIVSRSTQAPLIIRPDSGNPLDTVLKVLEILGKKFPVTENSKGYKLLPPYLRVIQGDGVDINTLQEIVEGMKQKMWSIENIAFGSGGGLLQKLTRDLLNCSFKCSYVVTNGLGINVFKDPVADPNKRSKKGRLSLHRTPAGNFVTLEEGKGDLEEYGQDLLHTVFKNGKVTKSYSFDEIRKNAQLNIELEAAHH

On to `O=C(CC1CC1)N1CC[C@H](Oc2ccc(NC(=O)N3CC(c4cccnc4)C3)cc2)C1` [Example 93, N-(4-{[(3S)-1-(cyclopropylacetyl)pyrrolidin-3-yl]oxy}phenyl)-3-(pyridin-3-yl)azetidine-1-carboxamide], for which the IC50 on NAMPT stood at 138 nM; in the test on PC3 cells, 87.6 nM.
For `O=C(Nc1ccc(O[C@H]2CCN(C(=O)[C@H]3CCCO3)C2)cc1)N1CC(c2cccnc2)C1` [Example 91, 3-(pyridin-3-yl)-N-[4-({(3S)-1-[(2R)-tetrahydrofuran-2-ylcarbonyl]pyrrolidin-3-yl}oxy)phenyl]azetidine-1-carboxamide] the same measures were 320 nM and 111 nM.
As for `O=C(Nc1ccc(C2CCN(C(=O)[C@H]3CCCO3)CC2)cc1)N1CC(c2cccnc2)C1` [Example 54, 3-(pyridin-3-yl)-N-(4-{1-[(2R)-tetrahydrofuran-2-ylcarbonyl]piperidin-4-yl}phenyl)azetidine-1-carboxamide], the half-maximal inhibitory concentration (IC50) on NAMPT came to 117 nM; in the test on PC3 cells, 58.9 nM.
Taken in the same sequence, the figures for `O=C(CC1CC1)N1CCC(c2ccc(NC(=O)N3CC(c4cccnc4)C3)cc2)C1` (stereo not drawn) [Example 69, N-{4-[1-(cyclopropylacetyl)pyrrolidin-3-yl]phenyl}-3-(pyridin-3-yl)azetidine-1-carboxamide] were 44.8 nM and 61.3 nM.
For `O=C(CC1CC1)N1CCC(c2ccc(NC(=O)N3CC(c4cccnc4)C3)cc2)CC1` [Example 55, N-{4-[1-(cyclopropylacetyl)piperidin-4-yl]phenyl}-3-(pyridin-3-yl)azetidine-1-carboxamide] the same measures were 29.3 nM and 8.06 nM.
Taken in the same sequence, the figures for `O=C(CC(F)(F)F)N1CC[C@@H](Oc2ccc(NC(=O)N3CC(c4cccnc4)C3)cc2)C1` [Example 84, 3-(pyridin-3-yl)-N-(4-{[(3R)-1-(3,3,3-trifluoropropanoyl)pyrrolidin-3-yl]oxy}phenyl)azetidine-1-carboxamide] were 59.4 nM and 22 nM.
Take `O=C(Nc1ccc(O[C@H]2CCN(C(=O)C3CC3)C2)cc1)N1CC(c2cccnc2)C1` [Example 97, N-(4-{[(3S)-1-(cyclopropylcarbonyl)pyrrolidin-3-yl]oxy}phenyl)-3-(pyridin-3-yl)azetidine-1-carboxamide]: the half-maximal inhibitory concentration (IC50) is 168 nM on NAMPT and 76.7 nM in the test with PC3 cells.
Take `CCC(C)CC(=O)N1CC[C@@H](Oc2ccc(NC(=O)N3CC(c4cccnc4)C3)cc2)C1` (stereo partly drawn) [Example 298, N-(4-{[(3R)-1-(3-methylpentanoyl)pyrrolidin-3-yl]oxy}phenyl)-3-(pyridin-3-yl)azetidine-1-carboxamide]: the half-maximal inhibitory concentration (IC50) on NAMPT was found to be 35.2 nM; in the test with PC3 cells it was 11.2 nM.
For `CC(C)C(=O)N1CC[C@H](Oc2ccc(NC(=O)N3CC(c4cccnc4)C3)cc2)C1` [Example 89, N-(4-{[(3S)-1-(2-methylpropanoyl)pyrrolidin-3-yl]oxy}phenyl)-3-(pyridin-3-yl)azetidine-1-carboxamide] the same measures were 227 nM and 180 nM.
For `CCCn1cc(-c2ccc(NC(=O)N3CC(c4cccnc4)C3)cc2)cn1` [Example 158, N-[4-(1-propyl-1H-pyrazol-4-yl)phenyl]-3-(pyridin-3-yl)azetidine-1-carboxamide] the same measures were 26.3 nM and 36.5 nM.
For `O=C(CCN1CCOCC1)N1CCC(c2ccc(NC(=O)N3CC(c4cccnc4)C3)cc2)C1` (stereo not drawn) [Example 281, N-(4-{1-[3-(morpholin-4-yl)propanoyl]pyrrolidin-3-yl}phenyl)-3-(pyridin-3-yl)azetidine-1-carboxamide] the same measures were 65.6 nM and 125 nM.
For `O=C(Nc1ccc(C2CCN(C(=O)[C@@H]3CCCO3)CC2)cc1)N1CC(c2cccnc2)C1` [Example 52, 3-(pyridin-3-yl)-N-(4-{1-[(2S)-tetrahydrofuran-2-ylcarbonyl]piperidin-4-yl}phenyl)azetidine-1-carboxamide], the 50% inhibitory concentration (IC50) on NAMPT is 38.9 nM; with PC3 cells, 6.78 nM.

These data come from patent US9296723B2, “NAMPT inhibitors” (AbbVie Inc., priority 2012, dated 2016).
